Results from PubChem BioAssay AID2060888 (Molecular Pharmacology Branch, DTP, NCI, 2025).

Tested on: 695427-040-R-J1-PDC complex spheroid viability
Experiment: Anticancer human tumor 695427-040-R-J1-PDC patient-derived colon adenocarcinoma cell line growth inhibition [RAS]
Conditions: for IC50: curve of first compound; for viability, T/C: stronger effect = lower value
Excerpt: RAS pathway inhibitors in Combinations in Complex Spheroids
A high-throughput screen of multi-cell type tumor spheroids was designed to identify active combinations of RAS pathway inhibitors and targeted small molecules. Complex spheroids include a stromal component modeled by human endothelial cells (HUVEC) and fibroblasts modeled by human mesenchymal stem cells (MSCs). The concentration ranges selected for each drug and investigational agent were based upon clinically achievable concentrations if the clinical Cmax of the agent was known.
Compounds. The drugs and investigational agents: abemaciclib (NSC768073), cobimetinib (NSC768068), divarasib (GDC6063, NSC841802), docetaxel (NSC628503), GDC-1971 (RLY-1971, NSC841576), gemcitabine (NSC613327), inavolisib (NSC800729), ipatasertib (NSC767898), KB-0742 (NSC834161), MRTX-1133 (NSC836407), osimertinib (NSC779217), RMC-4630 (NSC839698), RMC-6236 (NSC851965), RMC-6291 (NSC852671), Ro-3306 (NSC812927), sapanisertib (NSC764658), SN-38 (NSC673596), staurosporine (NSC755774), SY5609 (NSC837396), and tovorafenib (DAY101, NSC766906), were obtained from the National Cancer Institute (NCI) Developmental Therapeutics Program Chemical Repository. The FDA-approved anticancer drug set is available from the NCI Developmental Therapeutics Program. […] The stock solutions were prepared in dimethyl sulfoxide (DMSO, Sigma-Aldrich, St. Louis, MO, cat. D2650) at 800-fold the tested concentration and stored at -70 degrees C prior to their use. All drugs and investigational agents were tested over a range starting from a high concentration at or near the clinical Cmax and decreasing in half-log increments. If the clinical Cmax for an agent had not been determined, the highest concentration tested was 10 microM.
Cell Culture. All cells were maintained in an incubator at 37 degrees C and 5% CO2 with 95% humidity. The PDC lines were cultured according to standard operating procedures established by the NCI PDMR. All PDCs were thawed and cultured in Matrigel-coated flasks prepared with a working solution of 1X Ham's F-12 nutrient mix, without supplementation (Invitrogen, Waltham, MA, cat. 11765054), 100 U/mL penicillin-streptomycin (Invitrogen, cat. 15140122), and 2.5% Matrigel (Corning Inc., Corning, NY, cat. 354248) for the first three passages. The 362531-283-R-J2-PDC and 782815-120-R-J1-PDC lines were cultured in 6C/Colon 1B media, which includes advanced DMEM/F-12 (Thermo Fisher Scientific, cat. 12634028), 10 mM HEPES (Thermo Fisher Scientific, cat. 15630080), 1X GlutaMAX supplement (Thermo Fisher Scientific, cat. 35050061), 0.1 mg/mL primocin (InvivoGen, San Diego, CA, cat. ant-pm-2), 10% defined fetal bovine serum, heat inactivated (HyClone Laboratories Inc., Logan, UT, cat. SH30070.03HI), 50% L-WRN conditioned media (ATCC, cat. CRL-3276), 1.25 mM N-Acetyl-L-cysteine (Sigma-Aldrich, cat. A9165), 10 mM nicotinamide (Sigma-Aldrich, cat. N0636), 1X B-27 supplement (Thermo Fisher Scientific, cat. 17504044), 1X N-2 supplement (Thermo Fisher Scientific, cat. 17502048), 50 ng/mL human EGF (Thermo Fisher Scientific, cat. PHG0311), and 10 microM Y-27632 dihydrochloride (Tocris Bioscience, cat. 1254). The K12877-001-R-J1-PDC line was cultured in 6I media, which includes all 6C/Colon 1B media plus 10 ng/mL human FGF-10 (PeproTech, cat. 100-26), 1 ng/mL human FGF-2 (PeproTech, cat. 100-18B), 1 µM prostaglandin E2 (Tocris Bioscience, cat. 2296), […] hydrocortisone (Sigma-Aldrich, cat. H4001), and […] bovine insulin (Sigma-Aldrich, cat. I6634). The K86415-001-R-J1-PDC line was cultured in 6D media, which includes all 6C/Colon 1B media components minus the L-WRN conditioned media. The 485176-168-R4-J1-PDC was cultured in PANC media, which includes all 6C/Colon 1B media plus 100 ng/mL human FGF-10 (PeproTech, cat. 100-26), 500 nM SB-431542 (Selleckchem, cat. S1067), and 10 nM gastrin (Tocris Bioscience, cat. 3006). […]

[1] = second compound 0.0316 µM, first compound 0.0316 µM
[2] = second compound 0.0316 µM, first compound 0.1 µM
[3] = second compound 0.1 µM, first compound 0.0316 µM
[4] = second compound 0.1 µM, first compound 0.1 µM
[5] = second compound 0.316 µM, first compound 0.0316 µM
[6] = second compound 0.316 µM, first compound 0.1 µM
[7] = second compound 1 µM, first compound 0.0316 µM
[8] = second compound 1 µM, first compound 0.1 µM
[9] = second compound 3.16 µM, first compound 0.0316 µM
[10] = second compound 3.16 µM, first compound 0.1 µM
[11] = second compound 10 µM, first compound 0.0316 µM
[12] = second compound 10 µM, first compound 0.1 µM
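Further: viability read after seven days of drug exposure.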
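Wherever viability, T/C is given: 100% = DMSO vehicle control viability.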

For `CC(C)NCC(C(=O)N1CCN(c2ncnc3c2C(C)CC3O)CC1)c1ccc(Cl)cc1` (centres undefined) + C#Cc1c(F)ccc2cc(O)cc(-c3ncc4c(N5CC6CCC(C5)N6)nc(OCC56CCCN5CC(F)C6)nc4c3F)c12, the IC50 (second compound 0.0316 µM) was over 10000 nM, the IC50 (second compound 0.1 µM) was over 10000 nM and the IC50 (second compound 0.316 µM) was over 10000 nM. It also gave an IC50 (second compound 1 µM) of over 10000 nM, an IC50 (second compound 3.16 µM) of 773 nM and an IC50 (second compound 10 µM) of under 31.6 nM. The viability, T/C [1] was 111%, the viability, T/C [2] was 92.8% and the viability, T/C (second compound 0.0316 µM, first compound 0.316 µM) was 89.6%. For the same compound, the viability, T/C (second compound 0.0316 µM, first compound 1 µM) was 84%, the viability, T/C (second compound 0.0316 µM, first compound 3.16 µM) was 89.6% and the viability, T/C (second compound 0.0316 µM, first compound 10 µM) was 103%. It also gave a viability, T/C [3] of 92.6%, a viability, T/C [4] of 78.7% and a viability, T/C (second compound 0.1 µM, first compound 0.316 µM) of 83.7%. It also gave a viability, T/C (second compound 0.1 µM, first compound 1 µM) of 71%, a viability, T/C (second compound 0.1 µM, first compound 3.16 µM) of 94.8% and a viability, T/C (second compound 0.1 µM, first compound 10 µM) of 92.3%. The viability, T/C [5] was 83.7%, the viability, T/C [6] was 85.8% and the viability, T/C (second compound 0.316 µM, first compound 0.316 µM) was 82.7%. The viability, T/C (second compound 0.316 µM, first compound 1 µM) was 73.3%, the viability, T/C (second compound 0.316 µM, first compound 3.16 µM) was 76.6% and the viability, T/C (second compound 0.316 µM, first compound 10 µM) was 82.2%. It also gave a viability, T/C [7] of 66.2%, a viability, T/C [8] of 60.2% and a viability, T/C (second compound 1 µM, first compound 0.316 µM) of 60.3%. It also gave a viability, T/C (second compound 1 µM, first compound 1 µM) of 60.9%, a viability, T/C (second compound 1 µM, first compound 3.16 µM) of 67.2% and a viability, T/C (second compound 1 µM, first compound 10 µM) of 60.3%. The viability, T/C [9] was 59.6%, the viability, T/C [10] was 65.5% and the viability, T/C (second compound 3.16 µM, first compound 0.316 µM) was 48.7%. The viability, T/C (second compound 3.16 µM, first compound 1 µM) was 46.3%, the viability, T/C (second compound 3.16 µM, first compound 3.16 µM) was 48.5% and the viability, T/C (second compound 3.16 µM, first compound 10 µM) was 39.2%. It also gave a viability, T/C [11] of 33.6%, a viability, T/C [12] of 44.1% and a viability, T/C (second compound 10 µM, first compound 0.316 µM) of 34.4%. It also gave a viability, T/C (second compound 10 µM, first compound 1 µM) of 32.3%, a viability, T/C (second compound 10 µM, first compound 3.16 µM) of 26.1% and a viability, T/C (second compound 10 µM, first compound 10 µM) of 18.7%.
Compound `CC(C)n1nc(-c2ccc3oc(N)nc3c2)c2c(N)ncnc21` + C#Cc1c(F)ccc2cc(O)cc(-c3ncc4c(N5CC6CCC(C5)N6)nc(OCC56CCCN5CC(F)C6)nc4c3F)c12 has an IC50 (second compound 0.0316 µM) of over 100 nM, an IC50 (second compound 0.1 µM) of over 100 nM and an IC50 (second compound 0.316 µM) of over 100 nM. The IC50 (second compound 1 µM) was 22.5 nM, the IC50 (second compound 3.16 µM) was 2.77 nM and the IC50 (second compound 10 µM) was under 0.316 nM. The viability, T/C (second compound 0.0316 µM, first compound 0.000316 µM) was 105%, the viability, T/C (second compound 0.0316 µM, first compound 0.001 µM) was 95.1% and the viability, T/C (second compound 0.0316 µM, first compound 0.00316 µM) was 88.5%. For the same compound, the viability, T/C (second compound 0.0316 µM, first compound 0.01 µM) was 75.7%, the viability, T/C [1] was 70.3% and the viability, T/C [2] was 62.6%. It also gave a viability, T/C (second compound 0.1 µM, first compound 0.000316 µM) of 93.9%, a viability, T/C (second compound 0.1 µM, first compound 0.001 µM) of 89.4% and a viability, T/C (second compound 0.1 µM, first compound 0.00316 µM) of 90%. The viability, T/C (second compound 0.1 µM, first compound 0.01 µM) was 74.9%, the viability, T/C [3] was 74.7% and the viability, T/C [4] was 55.9%. It also gave a viability, T/C (second compound 0.316 µM, first compound 0.000316 µM) of 91.9%, a viability, T/C (second compound 0.316 µM, first compound 0.001 µM) of 80.9% and a viability, T/C (second compound 0.316 µM, first compound 0.00316 µM) of 78.6%. It also gave a viability, T/C (second compound 0.316 µM, first compound 0.01 µM) of 68.8%, a viability, T/C [5] of 61.5% and a viability, T/C [6] of 50.5%. For the same compound, the viability, T/C (second compound 1 µM, first compound 0.000316 µM) was 69.5%, the viability, T/C (second compound 1 µM, first compound 0.001 µM) was 64.3% and the viability, T/C (second compound 1 µM, first compound 0.00316 µM) was 63%. For the same compound, the viability, T/C (second compound 1 µM, first compound 0.01 µM) was 52.4%, the viability, T/C [7] was 47.8% and the viability, T/C [8] was 42.1%. For the same compound, the viability, T/C (second compound 3.16 µM, first compound 0.000316 µM) was 51.1%, the viability, T/C (second compound 3.16 µM, first compound 0.001 µM) was 58.7% and the viability, T/C (second compound 3.16 µM, first compound 0.00316 µM) was 47.4%. The viability, T/C (second compound 3.16 µM, first compound 0.01 µM) was 42.1%, the viability, T/C [9] was 35.4% and the viability, T/C [10] was 26.7%. For the same compound, the viability, T/C (second compound 10 µM, first compound 0.000316 µM) was 41.5%, the viability, T/C (second compound 10 µM, first compound 0.001 µM) was 33.5% and the viability, T/C (second compound 10 µM, first compound 0.00316 µM) was 35%. The viability, T/C (second compound 10 µM, first compound 0.01 µM) was 27%, the viability, T/C [11] was 25% and the viability, T/C [12] was 14.5%.
